In patent US20080069785A1, “PEST-CONTROL COMPOSITIONS, AND METHODS AND PRODUCTS UTILIZING SAME” (priority 2004, published 2008):

Test system: Horn fly (Haematobia irritans)
Assay: Treatment of livestock, control of flying insects (Example 23)
Assay type: in vivo
Method: The objective of this test was to evaluate the efficacy of the formulations in repelling flying insects from landing on and disturbing livestock. Ten animals were utilized for each treatment or control, with 120 cc/animal applied for each treatment. The experiment was performed by diluting the formulation to the appropriate concentration and spraying the formulation onto the livestock directly. One group had Ivermectin applied as a standard for comparison. Each group of animals was separated in the pasture by fencing. Counts were made immediately before treatments and then 1 day after treatment and 1 week after treatment. Every 2 weeks there was a retreatment and counts were repeated just prior to retreatment with same count cycle recurring through 2 week periods.
The flying insect evaluated was the Horn fly (Haematobia irritans).

Ivermectin
Average number of flies landing on the animals (2-Aug, one day after treatment on August 1 (including Ivermectin group)): 4.8
Average number of flies landing on the animals (6-Jul, one day after the initial treatment, 120 cc/animal, ten animals): 2.4
Average number of flies landing on the animals (8-Aug, one week after treatment on August 1): 62.0
Average number of flies landing on the animals (11-Jul, one week after initial treatment): 2.7
Average number of flies landing on the animals (18-Jul, two weeks after initial treatment): 41.4
Average number of flies landing on the animals (20-Jul, one day after retreatment on July 19 (except ivermectin)): 54.5
Average number of flies landing on the animals (25-Jul, one week after retreatment on July 19 (except ivermectin)): 82.7
Average number of flies landing on the animals (31-Jul, two weeks after retreatment on July 19 (except ivermectin)): 185.9
